Measured values taken from PubChem BioAssay (NCI).
Several values for one entry are separate records, joined by “and”; a condition that tells them apart may be missing. Equal entries are not always repeated.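 Method: 48-hour compound exposure of cells in 96-well plates, five concentrations, linear interpolation of endpoints. GI50 marks 50% less growth. TGI: total growth inhibition.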

Columns and labels:
Assay in all cases: growth of human tumour cells (NCI), 48 h
[1] = tested on: 786-0 renal
[2] = tested on: SF-539 CNS
[3] = tested on: OVCAR-3 ovarian
[4] = tested on: SK-OV-3 ovarian
[5] = tested on: NCI-H226 lung
[6] = tested on: RXF 393 renal
[7] = tested on: HCT-15 colon
[8] = tested on: ACHN renal
[9] = tested on: LOX IMVI melanoma
[10] = tested on: SK-MEL-28 melanoma

Row | SMILES | TGI [1] | TGI [2] | TGI [3] | TGI [4] | TGI [5] | TGI [6] | TGI [7] | TGI [8] | TGI [9] | TGI [10] | GI50 [1] | GI50 [2] | GI50 [3] | GI50 [4] | GI50 [5] | GI50 [6] | GI50 [7] | GI50 [8] | GI50 [9] | GI50 [10]
1 | Cc1ccc(C)c(NC(=O)C(=O)C2C(=O)C3=C(CC2(C)C)Nc2ccccc2S3)c1 (stereo unspecified) | > 100 µM | > 100 µM | > 100 µM | > 100 µM | > 100 µM | > 100 µM | > 100 µM | > 100 µM | > 100 µM | > 100 µM | – | – | – | – | – | – | – | – | – | –
2 | COC(=O)/C=C/c1cc(O)c2c(c1)C(C(=O)OC)C(c1ccc(O)c(O)c1)O2 (stereo unspecified) | > 56.3 µM | 0.72 µM and 1.19 µM | – | 71.7 µM and 35.7 µM | 24.3 µM and > 100 µM | 86.4 µM and > 100 µM | 68.8 µM and > 100 µM | 43.6 µM and > 82.3 µM | 36 µM and > 67.1 µM | 60.8 µM and > 100 µM | 0.626 µM | 0.255 µM | < 0.0488 µM | 1 µM and 0.585 µM | 2.93 µM and 3.86 µM | 0.0472 µM | 0.0991 µM | 0.183 µM and 0.0676 µM | 0.17 µM and 0.0633 µM | –
3 | Cc1cc2c(cc1C)NC(=O)C(NC(=O)/C=C/c1ccccc1)C=N2 (stereo unspecified) | > 100 µM | > 100 µM | 55.2 µM | > 100 µM | > 100 µM | 59.7 µM | 40.4 µM | > 100 µM | 55.3 µM | > 100 µM | – | – | – | – | – | – | – | – | – | –
4 | CCC/C(=N\NC(=S)N1CCN(c2ccccn2)CC1)c1ccccn1 | 1.82 µM and 1.94 µM | 1.82 µM and 1.11 µM | 0.615 µM and 1.14 µM | 2.15 µM and 2.68 µM | 3.67 µM and 1.75 µM | 2.08 µM and 1.38 µM | 1.55 µM and 1.75 µM | > 3.16 µM and 1.24 µM | 3.19 µM and 1.54 µM | > 10 µM and 1.47 µM | 0.0284 µM | 0.15 µM and 0.145 µM | – | 1.34 µM | 0.136 µM | 0.0102 µM | – | 0.0156 µM | – | –
5 | COc1ccc(CN2C(=O)/C(=C\c3cc(OC)c(OC)c(OC)c3)c3cc(OC)ccc32)cc1 | 5.07 µM | 3.76 µM | 4.7 µM | 13.1 µM | 22.8 µM | 3.47 µM | 3.42 µM | 3.2 µM | 2.67 µM | 3.3 µM | 2.29 µM | 1.86 µM | 2.14 µM | 3.12 µM | 3.93 µM | 1.63 µM | 1.66 µM | 1.73 µM | 1.35 µM | 1.72 µM
6 | O=C(CCN1CCN(c2cccc(Cl)c2)CC1)N1CCc2c([nH]c3ccccc23)C1c1cccnc1 (stereo unspecified) | 18.7 µM | 31.2 µM | 8.77 µM and 20.1 µM | 28.8 µM | 49.9 µM | 21 µM | 18 µM | 21.6 µM | 20.5 µM | 26.9 µM | 5.96 µM | – | 7.67 µM | 13.4 µM | – | 6.31 µM | 5.18 µM | 6.34 µM | 6.5 µM | –
7 | O=C1c2ccccc2-c2c1c1ccccc1c(=O)n2CCCNCCCn1c2c(c3ccccc3c1=O)C(=O)c1ccccc1-2 | 29.8 µM | 13 µM | 16.5 µM | 40.5 µM | 13.9 µM | > 29.1 µM | 3.81 µM | 8.81 µM | 8.25 µM | > 36.9 µM | 8.53 µM | 3.83 µM | 5.42 µM | 11.7 µM | 4.42 µM | 4.07 µM | 1.03 µM | 0.814 µM | 1.49 µM | 11 µM
